Reference: ChEMBL document CHEMBL1687743, “Intravenous doripenem at 500 milligrams versus levofloxacin at 250 milligrams, with an option to switch to oral therapy, for treatment of complicated lower urinary tract infection and pyelonephritis” (Antimicrob Agents Chemother, 2009)

Legend:
Escherichia coli [1] = experiment: Antibacterial activity against Escherichia coli infected in microbiologically evaluable patient with UTI assessed as cure rate at 250 mg, iv qd for 10 days measured at test-of-cure visit; assay type: functional
Escherichia coli [2] = experiment: Antibacterial activity against levofloxacin-resistant Escherichia coli infected in microbiologically evaluable patient with UTI assessed as cure rate at 250 mg, iv qd for 10 days measured at test-of-cure visit; assay type: functional
Escherichia coli [3] = experiment: Antibacterial activity against levofloxacin-resistant Escherichia coli infected in clinically evaluable patient with UTI assessed as cure rate at 250 mg, iv qd for 10 days measured at test-of-cure visit; assay type: functional
Klebsiella pneumoniae [4] = experiment: Antibacterial activity against Klebsiella pneumoniae infected in microbiologically evaluable patient with UTI assessed as cure rate at 250 mg, iv qd for 10 days measured at test-of-cure visit; assay type: functional
Proteus mirabilis [5] = experiment: Antibacterial activity against Proteus mirabilis infected in microbiologically evaluable patient with UTI assessed as cure rate at 250 mg, iv qd for 10 days measured at test-of-cure visit; assay type: functional
Escherichia coli [6] = experiment: Antibacterial activity against Escherichia coli isolated from patient with urinary tract infection receiving drug at 250 mg, iv qd for 10 days measured after post drug therapy; assay type: functional; conditions: Urine, 240 h
Klebsiella pneumoniae [7] = experiment: Antibacterial activity against Klebsiella pneumoniae isolated from patient with urinary tract infection receiving drug at 250 mg, iv qd for 10 days measured after post drug therapy; assay type: functional; conditions: Urine, 240 h
Proteus mirabilis [8] = experiment: Antibacterial activity against Proteus mirabilis isolated from patient with urinary tract infection receiving drug at 250 mg, iv qd for 10 days measured after post drug therapy; assay type: functional; conditions: Urine, 240 h
Pseudomonas aeruginosa [9] = experiment: Antibacterial activity against Pseudomonas aeruginosa isolated from patient with urinary tract infection receiving drug at 250 mg, iv qd for 10 days measured after post drug therapy; assay type: functional; conditions: Urine, 240 h
Enterococcus faecalis = experiment: Antibacterial activity against levofloxacin-resistant Enterococcus faecalis
Escherichia coli [10] = experiment: Antibacterial activity against levofloxacin-resistant Escherichia coli; assay type: functional
Proteus mirabilis [11] = experiment: Antibacterial activity against levofloxacin-resistant Proteus mirabilis; assay type: functional
Pseudomonas aeruginosa [12] = experiment: Antibacterial activity against levofloxacin-resistant Pseudomonas aeruginosa
Homo sapiens [13] = experiment: Treatment emergent adverse event in intent-to-treat patient with complicated urinary tract infection assessed as headache at 250 […], iv qd for 10 days; assay type: ADME, organism-based, Urine; parameters: route intravenous; conditions: in vivo, 240 h
Homo sapiens [14] = experiment: Treatment emergent adverse event in intent-to-treat patient with complicated urinary tract infection assessed as constipation at 250 […], iv qd for 10 days; assay type: organism-based; parameters: route intravenous; conditions: in vivo, 240 h
Homo sapiens [15] = experiment: Treatment emergent adverse event in intent-to-treat patient with complicated urinary tract infection assessed as diarrhea at 250 […], iv qd for 10 days; assay type: organism-based; parameters: route intravenous; conditions: in vivo, 240 h
Homo sapiens [16] = experiment: Treatment emergent adverse event in intent-to-treat patient with complicated urinary tract infection assessed as vomiting at 250 […], iv qd for 10 days; assay type: ADME, organism-based, Urine; parameters: route intravenous; conditions: in vivo, 240 h
Homo sapiens [17] = experiment: Treatment emergent adverse event in intent-to-treat patient with complicated urinary tract infection assessed as upper abdominal pain at 250 […], iv qd for 10 days; assay type: ADME, organism-based, Urine; parameters: route intravenous; conditions: in vivo, 240 h
Homo sapiens [18] = experiment: Treatment emergent adverse event in intent-to-treat patient with complicated urinary tract infection assessed as nausea at 250 […], iv qd for 10 days; assay type: ADME, organism-based, Urine; parameters: route intravenous; conditions: in vivo, 240 h
Homo sapiens [19] = experiment: Treatment emergent adverse event in intent-to-treat patient with complicated urinary tract infection assessed as phlebitis at 250 […], iv qd for 10 days; assay type: organism-based; parameters: route intravenous; conditions: in vivo, 240 h
Homo sapiens [20] = experiment: Treatment emergent adverse event in intent-to-treat patient with complicated urinary tract infection assessed as insomnia at 250 […], iv qd for 10 days; assay type: ADME, organism-based, Urine; parameters: route intravenous; conditions: in vivo, 240 h
Homo sapiens [21] = experiment: Treatment emergent adverse event in intent-to-treat patient with complicated urinary tract infection assessed as urinary tract infection at 250 […], iv qd for 10 days; assay type: ADME, organism-based; parameters: route intravenous; conditions: in vivo, 240 h
Homo sapiens [22] = experiment: Treatment emergent adverse event in intent-to-treat patient with complicated urinary tract infection assessed as asymptomatic bacteriuria at 250 […], iv qd for 10 days; assay type: organism-based, Urine; parameters: route intravenous; conditions: in vivo, 240 h
Homo sapiens [23] = experiment: Treatment emergent adverse event in intent-to-treat patient with complicated urinary tract infection assessed as back pain at 250 […], iv qd for 10 days; assay type: organism-based; parameters: route intravenous; conditions: in vivo, 240 h
Homo sapiens [24] = experiment: Treatment emergent adverse event in intent-to-treat patient with complicated urinary tract infection assessed as hypokalemia at 250 […], iv qd for 10 days; assay type: ADME, organism-based, Urine; parameters: route intravenous; conditions: in vivo, 240 h
Homo sapiens [25] = experiment: Treatment emergent adverse event in intent-to-treat patient with complicated urinary tract infection assessed as abdominal pain at 250 […], iv qd for 10 days; assay type: organism-based; parameters: route intravenous; conditions: in vivo, 240 h
Homo sapiens [26] = experiment: Treatment emergent adverse event in intent-to-treat patient with complicated urinary tract infection assessed as >=1 adverse event at 250 […], iv qd for 10 days; assay type: organism-based, Urine; parameters: dose 250 mg/kg, route intravenous; conditions: in vivo, 240 h
Homo sapiens [27] = experiment: Drug related treatment emergent adverse event in intent-to-treat patient with complicated urinary tract infection assessed as >=1 adverse event at 250 […], iv qd for 10 days; assay type: toxicity, organism-based; parameters: dose 250 mg/kg, route intravenous; conditions: in vivo, 240 h
Homo sapiens [28] = experiment: Drug related treatment emergent adverse event in intent-to-treat patient with complicated urinary tract infection assessed as headache at 250 […], iv qd for 10 days; assay type: toxicity, organism-based, Urine; parameters: dose 250 […], route intravenous; conditions: in vivo, 240 h
Homo sapiens [29] = experiment: Drug related treatment emergent adverse event in intent-to-treat patient with complicated urinary tract infection assessed as diarrhea at 250 […], iv qd for 10 days; assay type: toxicity, organism-based; parameters: dose 250 […], route intravenous; conditions: in vivo, 240 h
Homo sapiens [30] = experiment: Drug related treatment emergent adverse event in intent-to-treat patient with complicated urinary tract infection assessed as upper abdominal pain at 250 […], iv qd for 10 days; assay type: toxicity, organism-based; parameters: dose 250 […], route intravenous; conditions: in vivo, 240 h
Homo sapiens [31] = experiment: Drug related treatment emergent adverse event in intent-to-treat patient with complicated urinary tract infection assessed as nausea at 250 […], iv qd for 10 days; assay type: toxicity, organism-based, Urine; parameters: dose 250 […], route intravenous; conditions: in vivo, 240 h
Homo sapiens [32] = experiment: Drug related treatment emergent adverse event in intent-to-treat patient with complicated urinary tract infection assessed as phlebitis at 250 […], iv qd for 10 days; assay type: toxicity, organism-based, Urine; parameters: dose 250 […], route intravenous; conditions: in vivo, 240 h

C[C@H]1COc2c(N3CCN(C)CC3)c(F)cc3c(=O)c(C(=O)O)cn1c23.C[C@H]1COc2c(N3CCN(C)CC3)c(F)cc3c(=O)c(C(=O)O)cn1c23.O [LEVOFLOXACIN]
Activity (Escherichia coli [1]): 87.2%
Activity (Escherichia coli [2]): 29%
Activity (Escherichia coli [3]): 33%
Activity (Klebsiella pneumoniae [4]): 62.5%
Activity (Proteus mirabilis [5]): 86.7%
MIC (Escherichia coli [6]): 0.25 µg/mL
MIC (Klebsiella pneumoniae [7]): 2 µg/mL
MIC (Proteus mirabilis [8]): 0.25 µg/mL
MIC (Pseudomonas aeruginosa [9]): 0.25 µg/mL
MIC (Enterococcus faecalis): 16 µg/mL
MIC (Escherichia coli [10]): 32 µg/mL
MIC (Proteus mirabilis [11]): 32 µg/mL
MIC (Pseudomonas aeruginosa [12]): 32 µg/mL
Activity (Homo sapiens [13]): 14.5%
Activity (Homo sapiens [14]): 4.8%
Activity (Homo sapiens [15]): 9.9%
Activity (Homo sapiens [16]): 4.3%
Activity (Homo sapiens [17]): 3.5%
Activity (Homo sapiens [18]): 5.9%
Activity (Homo sapiens [19]): 4%
Activity (Homo sapiens [20]): 3%
Activity (Homo sapiens [21]): 1.6%
Activity (Homo sapiens [22]): 1.1%
Activity (Homo sapiens [23]): 4.6%
Activity (Homo sapiens [24]): 3.5%
Activity (Homo sapiens [25]): 3.5%
Activity (Homo sapiens [26]): 60%
Activity (Homo sapiens [27]): 25%
Activity (Homo sapiens [28]): 2.7%
Activity (Homo sapiens [29]): 5.9%
Activity (Homo sapiens [30]): 2.2%
Activity (Homo sapiens [31]): 1.6%
Activity (Homo sapiens [32]): 3%
